Common to all, as to assay: In vitro kinase assay (IC50)
Holding throughout (assay type): biochemical

Test [1] concerns the target T1, p38a (Homo sapiens, UniProt Q16539).
T1 construct: purchased Reaction Biology Corp
On the procedure:
(§1) Full panel kinase profiling and kinase IC50 measurement were performed by using Reaction Biology Corp. (San Diego, USA).

The target in test [2] is T2, Lck (Homo sapiens, UniProt P06239).
T2 construct: purchased Reaction Biology Corp
On the procedure: as §1

In test [3] the target is T3, c-Src (Homo sapiens, UniProt P12931).
T3 construct: purchased Reaction Biology Corp
The protocol: as §1

Test [4] deals with T4, Abl1 (Homo sapiens, UniProt P00519).
T4 construct: purchased Reaction Biology Corp
The protocol:
as §1

The source of these data is PMC9067983, “Identification of highly selective type II kinase inhibitors with chiral peptidomimetic tails” (Journal of Enzyme Inhibition and Medicinal Chemistry, 2022).

Where a SMILES comes first, the peptide text is derived from it. [ ]: non-standard residue; d: D form. The star is where a group is joined. X1 = Cc1ccc(Nc2ncc3c(n2)N(C)C(=O)N(c2cc(C(=O)*)ccc2C)C3)cn1; Aib = CC(C)(N)C(=O)O

T4 sequence (P00519 whole entry): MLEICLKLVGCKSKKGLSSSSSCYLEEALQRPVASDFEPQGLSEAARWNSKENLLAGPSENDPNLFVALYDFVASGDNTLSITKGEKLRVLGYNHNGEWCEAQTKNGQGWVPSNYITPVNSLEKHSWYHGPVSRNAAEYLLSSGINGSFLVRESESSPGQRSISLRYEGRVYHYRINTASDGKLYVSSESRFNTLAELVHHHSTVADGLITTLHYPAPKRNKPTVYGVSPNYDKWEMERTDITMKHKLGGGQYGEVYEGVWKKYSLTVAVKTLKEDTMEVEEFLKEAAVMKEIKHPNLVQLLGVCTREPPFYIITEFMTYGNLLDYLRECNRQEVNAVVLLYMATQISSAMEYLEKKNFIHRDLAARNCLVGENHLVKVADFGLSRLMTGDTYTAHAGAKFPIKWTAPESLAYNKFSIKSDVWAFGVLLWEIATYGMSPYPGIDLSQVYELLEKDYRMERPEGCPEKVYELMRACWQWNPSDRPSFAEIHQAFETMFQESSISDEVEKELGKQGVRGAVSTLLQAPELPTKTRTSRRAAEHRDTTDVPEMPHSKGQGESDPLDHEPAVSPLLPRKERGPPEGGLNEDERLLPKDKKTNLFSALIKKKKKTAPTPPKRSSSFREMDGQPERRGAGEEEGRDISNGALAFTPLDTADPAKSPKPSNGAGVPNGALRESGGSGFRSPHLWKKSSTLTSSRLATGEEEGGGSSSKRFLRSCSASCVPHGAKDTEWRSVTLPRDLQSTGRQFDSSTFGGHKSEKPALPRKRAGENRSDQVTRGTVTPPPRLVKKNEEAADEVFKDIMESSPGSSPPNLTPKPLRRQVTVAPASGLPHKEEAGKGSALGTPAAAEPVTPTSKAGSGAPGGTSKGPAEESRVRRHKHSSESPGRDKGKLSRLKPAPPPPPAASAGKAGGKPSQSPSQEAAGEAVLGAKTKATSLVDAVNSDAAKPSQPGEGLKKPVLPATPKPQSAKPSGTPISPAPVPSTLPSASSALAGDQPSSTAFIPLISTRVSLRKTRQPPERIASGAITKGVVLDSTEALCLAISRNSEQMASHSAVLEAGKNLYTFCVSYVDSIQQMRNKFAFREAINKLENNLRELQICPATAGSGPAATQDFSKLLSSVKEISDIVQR
T3 sequence (P12931 whole entry): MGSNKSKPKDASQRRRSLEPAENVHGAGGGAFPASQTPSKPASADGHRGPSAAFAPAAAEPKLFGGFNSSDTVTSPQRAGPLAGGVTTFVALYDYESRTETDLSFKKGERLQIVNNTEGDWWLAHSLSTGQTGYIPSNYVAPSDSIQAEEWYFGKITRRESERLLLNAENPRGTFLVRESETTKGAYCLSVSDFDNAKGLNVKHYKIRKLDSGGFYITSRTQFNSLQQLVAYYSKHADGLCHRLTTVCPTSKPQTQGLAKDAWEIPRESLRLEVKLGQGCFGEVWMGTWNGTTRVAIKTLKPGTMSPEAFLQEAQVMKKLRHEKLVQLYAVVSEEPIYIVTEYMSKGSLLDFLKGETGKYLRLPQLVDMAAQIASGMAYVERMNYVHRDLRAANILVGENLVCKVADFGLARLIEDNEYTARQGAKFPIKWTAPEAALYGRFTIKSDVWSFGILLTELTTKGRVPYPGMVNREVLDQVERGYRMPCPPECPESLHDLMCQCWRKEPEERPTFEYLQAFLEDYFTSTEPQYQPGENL
T2 sequence (P06239 whole entry): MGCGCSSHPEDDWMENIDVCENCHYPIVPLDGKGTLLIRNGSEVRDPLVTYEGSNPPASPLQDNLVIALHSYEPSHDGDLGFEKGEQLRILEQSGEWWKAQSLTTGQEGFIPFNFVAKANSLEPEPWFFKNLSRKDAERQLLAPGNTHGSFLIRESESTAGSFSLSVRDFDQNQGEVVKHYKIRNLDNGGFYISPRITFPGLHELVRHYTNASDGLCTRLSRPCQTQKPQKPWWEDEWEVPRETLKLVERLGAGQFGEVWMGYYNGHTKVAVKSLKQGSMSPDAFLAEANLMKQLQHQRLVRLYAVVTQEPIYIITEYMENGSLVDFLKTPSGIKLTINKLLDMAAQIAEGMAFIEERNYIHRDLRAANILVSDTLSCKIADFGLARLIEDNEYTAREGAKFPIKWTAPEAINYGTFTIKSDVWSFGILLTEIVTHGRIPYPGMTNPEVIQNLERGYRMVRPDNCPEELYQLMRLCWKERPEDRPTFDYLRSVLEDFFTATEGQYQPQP
T1 sequence (Q16539 whole entry): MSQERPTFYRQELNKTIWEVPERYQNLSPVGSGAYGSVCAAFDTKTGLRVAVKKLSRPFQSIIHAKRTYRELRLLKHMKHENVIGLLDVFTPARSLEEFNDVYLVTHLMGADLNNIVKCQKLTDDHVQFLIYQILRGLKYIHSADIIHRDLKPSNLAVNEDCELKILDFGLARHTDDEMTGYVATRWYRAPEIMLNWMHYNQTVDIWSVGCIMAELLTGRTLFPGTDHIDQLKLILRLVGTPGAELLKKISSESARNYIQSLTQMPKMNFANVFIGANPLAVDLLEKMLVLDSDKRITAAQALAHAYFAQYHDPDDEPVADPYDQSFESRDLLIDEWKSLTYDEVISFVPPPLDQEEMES

Take `Cc1ccc(Nc2ncc3c(n2)N(C)C(=O)N(c2cc(C(=O)N[C@H](C(=O)N4CCC[C@@H]4C(=O)NC(C)(C)C(=O)N[C@@H](CC(C)C)C(=O)N(C)C)C(C)C)ccc2C)C3)cn1` [7b, (R)-N-(1-(((S)-1-(dimethylamino)-4-methyl-1-oxopentan-2-yl)amino)-2-methyl-1-oxopropan-2-yl)-1-((4-methyl-3-(1-methyl-7-((6-methylpyridin-3-yl)amino)-2-oxo-1,4-dihydropyrimido[4,5-d]pyrimidin-3(2H)-yl)benzoyl)-L-valyl)pyrrolidine-2-carboxamide] (X1-V[dP][Aib]L-NMe2): the IC50 was determined as 2050 nM in test [1], 174 nM in test [2], 379 nM in test [3] and 317 nM in test [4].

Regarding `Cc1ccc(Nc2ncc3c(n2)N(C)C(=O)N(c2cc(C(=O)N[C@@H](Cc4ccccc4)C(=O)N4CCC[C@@H]4C(=O)N[C@H](C(=O)N[C@H](C)c4ccccc4)C(C)C)ccc2C)C3)cn1` [7w, (R)-N-((S)-3-methyl-1-oxo-1-(((R)-1-phenylethyl)amino)butan-2-yl)-1-((4-methyl-3-(1-methyl-7-((6-methylpyridin-3-yl)amino)-2-oxo-1,4-dihydropyrimido[4,5-d]pyrimidin-3(2H)-yl)benzoyl)-L-phenylalanyl)pyrrolidine-2-carboxamide], the IC50 in test [2] came to 129 nM; in test [3] it was 585 nM.

On to `Cc1ccc(Nc2ncc3c(n2)N(C)C(=O)N(c2cc(NC(=O)c4ccc5c(c4)NC(=O)[C@H](Cc4ccccc4)N=C5c4ccccc4)ccc2C)C3)cn1` [11a, (S)-3-benzyl-N-(4-methyl-3-(1-methyl-7-((6-methylpyridin-3-yl)amino)-2-oxo-1,4-dihydropyrimido[4,5-d]pyrimidin-3(2H)-yl)phenyl)-2-oxo-5-phenyl-2,3-dihydro-1H-benzo[e][1,4]diazepine-8-carboxamide], for which the IC50 in test [1] came out at 1830 nM; in test [2], 8.5 nM; in test [3], 20.4 nM; in test [4] it was 189 nM.

Regarding `Cc1ccc(Nc2ncc3c(n2)N(C)C(=O)N(c2cc(NC(=O)c4ccc5c(c4)NC(=O)[C@H](C)N=C5c4ccccc4)ccc2C)C3)cn1` [11c, (S)-3-methyl-N-(4-methyl-3-(1-methyl-7-((6-methylpyridin-3-yl)amino)-2-oxo-1,4-dihydropyrimido[4,5-d]pyrimidin-3(2H)-yl)phenyl)-2-oxo-5-phenyl-2,3-dihydro-1H-benzo[e][1,4]diazepine-8-carboxamide], the half-maximal inhibitory concentration (IC50) in test [1] was found to be 14.9 nM; in test [2], 1.17 nM; in test [3], 2.84 nM; in test [4], 4.64 nM.

Turning to `Cc1ccc(Nc2ncc3c(n2)N(C)C(=O)N(c2cc(NC(=O)c4ccc5c(c4)N(Cc4ccccc4)C(=O)[C@H](C)N=C5c4ccccc4)ccc2C)C3)cn1` [11d, (S)-1-benzyl-3-methyl-N-(4-methyl-3-(1-methyl-7-((6-methylpyridin-3-yl)amino)-2-oxo-1,4-dihydropyrimido[4,5-d]pyrimidin-3(2H)-yl)phenyl)-2-oxo-5-phenyl-2,3-dihydro-1H-benzo[e][1,4]diazepine-8-carboxamide], the IC50 in test [1] was 101 nM; in test [2] it was 3.42 nM; in test [3], 15.2 nM; in test [4] it was 24.1 nM.

As to `Cc1ccc(Nc2ncc3c(n2)N(C)C(=O)N(c2cc(NC(=O)c4ccc5c(c4)NC(=O)[C@@H](Cc4ccccc4)N=C5c4ccccc4)ccc2C)C3)cn1` [11f, (R)-3-benzyl-N-(4-methyl-3-(1-methyl-7-((6-methylpyridin-3-yl)amino)-2-oxo-1,4-dihydropyrimido[4,5-d]pyrimidin-3(2H)-yl)phenyl)-2-oxo-5-phenyl-2,3-dihydro-1H-benzo[e][1,4]diazepine-8-carboxamide], the figures for the IC50 in test [2] and in test [3] were 18.7 nM and 62.6 nM, respectively.

As to `Cc1ccc(Nc2ncc3c(n2)N(C)C(=O)N(c2cc(NC(=O)c4ccc5c(c4)NC(=O)[C@H](Cc4ccc(F)cc4)N=C5c4ccccc4)ccc2C)C3)cn1` [11g, (S)-3-(4-fluorobenzyl)-N-(4-methyl-3-(1-methyl-7-((6-methylpyridin-3-yl)amino)-2-oxo-1,4-dihydropyrimido[4,5-d]pyrimidin-3(2H)-yl)phenyl)-2-oxo-5-phenyl-2,3-dihydro-1H-benzo[e][1,4]diazepine-8-carboxamide], the values for the IC50 in test [2] and in test [3] were 42.1 nM and 134 nM, respectively.

Turning to `Cc1ccc(Nc2ncc3c(n2)N(C)C(=O)N(c2cc(NC(=O)c4ccc5c(c4)N(C)C(=O)[C@H](CC(C)C)N=C5c4ccccc4)ccc2C)C3)cn1` [11h, (S)-3-isobutyl-1-methyl-N-(4-methyl-3-(1-methyl-7-((6-methylpyridin-3-yl)amino)-2-oxo-1,4-dihydropyrimido[4,5-d]pyrimidin-3(2H)-yl)phenyl)-2-oxo-5-phenyl-2,3-dihydro-1H-benzo[e][1,4]diazepine-8-carboxamide], the concentration for half-maximal inhibition (IC50) in test [2] stood at 24.6 nM; in test [3] it was 135 nM.

With `C=CCN1C(=O)[C@H](CC(C)C)N=C(c2ccccc2)c2ccc(C(=O)Nc3ccc(C)c(N4Cc5cnc(Nc6ccc(C)nc6)nc5N(C)C4=O)c3)cc21` [11i, (S)-1-allyl-3-isobutyl-N-(4-methyl-3-(1-methyl-7-((6-methylpyridin-3-yl)amino)-2-oxo-1,4-dihydropyrimido[4,5-d]pyrimidin-3(2H)-yl)phenyl)-2-oxo-5-phenyl-2,3-dihydro-1H-benzo[e][1,4]diazepine-8-carboxamide], the half-inhibitory concentration (IC50) in test [2] is 49.3 nM; in test [3] it was 222 nM.

For the molecule `Cc1ccc(Nc2ncc3c(n2)N(C)C(=O)N(c2cc(NC(=O)c4ccc5c(c4)N(CC(C)C)C(=O)[C@H](CC(C)C)N=C5c4ccccc4)ccc2C)C3)cn1` [11j, (S)-1,3-diisobutyl-N-(4-methyl-3-(1-methyl-7-((6-methylpyridin-3-yl)amino)-2-oxo-1,4-dihydropyrimido[4,5-d]pyrimidin-3(2H)-yl)phenyl)-2-oxo-5-phenyl-2,3-dihydro-1H-benzo[e][1,4]diazepine-8-carboxamide], the IC50 in test [2] was determined as 132 nM; in test [3], 461 nM.

With `CC1=N[C@@H](Cc2ccccc2)C(=O)Nc2cc(C(=O)Nc3ccc(C)c(N4Cc5cnc(Nc6ccc(C)nc6)nc5N(C)C4=O)c3)ccc21` [11k, (S)-3-benzyl-5-methyl-N-(4-methyl-3-(1-methyl-7-((6-methylpyridin-3-yl)amino)-2-oxo-1,4-dihydropyrimido[4,5-d]pyrimidin-3(2H)-yl)phenyl)-2-oxo-2,3-dihydro-1H-benzo[e][1,4]diazepine-8-carboxamide], the half-inhibitory concentration (IC50) in test [2] was determined as 3.57 nM; in test [3] it was 27.1 nM.

For the molecule `CC1=N[C@H](Cc2ccccc2)C(=O)Nc2cc(C(=O)Nc3ccc(C)c(N4Cc5cnc(Nc6ccc(C)nc6)nc5N(C)C4=O)c3)ccc21` [11l, (R)-3-benzyl-5-methyl-N-(4-methyl-3-(1-methyl-7-((6-methylpyridin-3-yl)amino)-2-oxo-1,4-dihydropyrimido[4,5-d]pyrimidin-3(2H)-yl)phenyl)-2-oxo-2,3-dihydro-1H-benzo[e][1,4]diazepine-8-carboxamide], the IC50 in test [2] is 4.63 nM; in test [3] it was 19.6 nM.

Turning to `CC1=N[C@@H](CC(C)C)C(=O)N(C)c2cc(C(=O)Nc3ccc(C)c(N4Cc5cnc(Nc6ccc(C)nc6)nc5N(C)C4=O)c3)ccc21` [11m, (S)-3-isobutyl-1,5-dimethyl-N-(4-methyl-3-(1-methyl-7-((6-methylpyridin-3-yl)amino)-2-oxo-1,4-dihydropyrimido[4,5-d]pyrimidin-3(2H)-yl)phenyl)-2-oxo-2,3-dihydro-1H-benzo[e][1,4]diazepine-8-carboxamide], the values for the half-maximal inhibitory concentration (IC50) in test [2] and in test [3] were 1.05 nM and 4.01 nM, respectively.

As to `COCCN1C(=O)[C@H](CC(C)C)N=C(c2ccccc2)c2ccc(C(=O)Nc3ccc(C)c(N4Cc5cnc(Nc6ccc(C)nc6)nc5N(C)C4=O)c3)cc21` [11n, (S)-3-isobutyl-1-(2-methoxyethyl)-N-(4-methyl-3-(1-methyl-7-((6-methylpyridin-3-yl)amino)-2-oxo-1,4-dihydropyrimido[4,5-d]pyrimidin-3(2H)-yl)phenyl)-2-oxo-5-phenyl-2,3-dihydro-1H-benzo[e][1,4]diazepine-8-carboxamide], the IC50 in test [2] amounted to 16 nM; in test [3] it was 48.6 nM.

As for `Cc1ccc(Nc2ncc3c(n2)N(C)C(=O)N(c2cc(NC(=O)c4ccc5c(c4)N(CC(=O)NCc4ccccc4)C(=O)[C@H](CC(C)C)N=C5c4ccccc4)ccc2C)C3)cn1` [11o, (S)-1-(2-(benzylamino)-2-oxoethyl)-3-isobutyl-N-(4-methyl-3-(1-methyl-7-((6-methylpyridin-3-yl)amino)-2-oxo-1,4-dihydropyrimido[4,5-d]pyrimidin-3(2H)-yl)phenyl)-2-oxo-5-phenyl-2,3-dihydro-1H-benzo[e][1,4]diazepine-8-carboxamide], the values for the half-inhibitory concentration (IC50) in test [2] and in test [3] were 27.8 nM and 87.5 nM, respectively.

On to `C=CCCC1=N[C@@H](CC(=O)Nc2ccc(C)c(N3Cc4cnc(Nc5ccc(C)nc5)nc4N(C)C3=O)c2)C(=O)N(C)c2ccccc21` [11p, (S)-2-(5-(but-3-en-1-yl)-1-methyl-2-oxo-2,3-dihydro-1H-benzo[e][1,4]diazepin-3-yl)-N-(4-methyl-3-(1-methyl-7-((6-methylpyridin-3-yl)amino)-2-oxo-1,4-dihydropyrimido[4,5-d]pyrimidin-3(2H)-yl)phenyl)acetamide], for which the IC50 in test [2] is 3.8 nM; in test [3], 6.14 nM.

In the case of `C=CCCC1=N[C@@H](CC(=O)Nc2ccc(C)c(N3Cc4cnc(Nc5ccc(C)nc5)nc4N(C)C3=O)c2)C(=O)N(Cc2ccccc2)c2ccccc21` [11q, (S)-2-(1-benzyl-5-(but-3-en-1-yl)-2-oxo-2,3-dihydro-1H-benzo[e][1,4]diazepin-3-yl)-N-(4-methyl-3-(1-methyl-7-((6-methylpyridin-3-yl)amino)-2-oxo-1,4-dihydropyrimido[4,5-d]pyrimidin-3(2H)-yl)phenyl)acetamide], the IC50 came to 17.9 nM in test [2] and 24.8 nM in test [3].

A word on the IC50: it is the concentration at which inhibition is half-maximal. High values mean lower potency, low ones higher potency.
